Molecular target: T1, Aurora A (Homo sapiens, UniProt O14965)
T1 construct: cell lysates from Jurkat cells (ATCC TIB-152) used; endogenous in cells; host or cells: Jurkat cells (ATCC TIB-152), treated with pervanadate
T1 sequence (O14965 1-403): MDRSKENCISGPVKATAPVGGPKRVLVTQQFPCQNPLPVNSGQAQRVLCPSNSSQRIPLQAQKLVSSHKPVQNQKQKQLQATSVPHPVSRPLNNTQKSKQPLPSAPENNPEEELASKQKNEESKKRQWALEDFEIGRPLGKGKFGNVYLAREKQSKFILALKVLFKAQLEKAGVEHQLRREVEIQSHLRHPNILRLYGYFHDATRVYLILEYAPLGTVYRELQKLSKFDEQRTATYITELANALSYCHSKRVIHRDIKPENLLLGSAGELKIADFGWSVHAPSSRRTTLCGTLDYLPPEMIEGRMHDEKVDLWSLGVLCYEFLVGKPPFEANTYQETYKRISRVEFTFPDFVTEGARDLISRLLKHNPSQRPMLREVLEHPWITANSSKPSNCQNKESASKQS
Experiment: Kinobeads assay, Aurora A
Assay type: binding
Details: for IC50: lysate of pervanadate-treated Jurkat cells, read-out: Inhibition values (IC50) Aur A
Procedure: The compounds of the present invention as described in the previous examples were tested in a Kinobeads™ assay as described for ZAP-70 (WO-A 2007/137867). Briefly, test compounds (at various concentrations) and the affinity matrix with the immobilized aminopyrido-pyrimidine ligand 24 were added to cell lysate aliquots and allowed to bind to the proteins in the lysate sample. After the incubation time the beads with captured proteins were separated from the lysate. Bound proteins were then eluted and the presence of JAK2 and JAK3 was detected and quantified using specific antibodies in a dot blot procedure and the Odyssey infrared detection system. Dose response curves for individual kinases were generated and IC50 values calculated. Kinobeads™ assays for ZAP-70 (WO-A 2007/137867) and for kinase selectivity profiling (WO-A 2006/134056) have been previously described.
The affinity matrix was washed two times with 15 mL of 1×DP buffer containing 0.2% NP40 (IGEPAL® CA-630, Sigma, #I3021) and then resuspended in 1×DP buffer containing 0.2% NP40 (3% beads slurry).
5×DP buffer 250 mM Tris-HCl pH 7.4, 25% Glycerol, 7.5 mM MgCl2, 750 mM NaCl, 5 mM Na3VO4; filter the 5×DP buffer through a 0.22 μm filter and store in aliquots at −80° C. The 5×DP buffer is diluted with H2O to 1×DP buffer containing 1 mM DTT and 25 mM NaF.
Stock solutions of test compounds were prepared in DMSO. In a 96 well plate 30 μL solution of diluted test compounds at 5 mM in DMSO were prepared. Starting with this solution a 1:3 dilution series (9 steps) was prepared. For control experiments (no test compound) a buffer containing 2% DMSO was used.
Cell lysate (approximately 50 mg protein per plate) was thawed in a water bath at room temperature and then stored on ice. To the thawed cell lysate 1×DP 0.8% NP40 buffer containing protease inhibitors (1 tablet for 25 mL buffer; EDTA-free protease inhibitor cocktail; Roche Diagnostics 1873580) was added in order to reach a final protein concentration of 10 mg/mL total protein. The diluted cell lysate was stored on ice. Mixed Molt4/Ramos lysate was prepared by combining one volume of Molt4 lysate and two volumes of Ramos lysate (ratio 1:2).
To a 96 well filter plate (Multiscreen HTS, BV Filter Plates, Millipore #MSBVN1250) were added per well: 100 μL affinity matrix (3% beads slurry), 3 μL of compound solution, and 50 μL of diluted lysate. Plates were sealed and incubated for 3 hours in a cold room on a plate shaker (Heidolph tiramax 1000) at 750 rpm. Afterwards the plate was washed 3 times with 230 μL washing buffer (1×DP 0.4% NP40). The filter plate was placed on top of a collection 1 plate (Greiner bio-one, PP-microplate 96 well V-shape, 65120) and the beads were then eluted with 20 μL of sample buffer (100 mM Tris, pH 7.4, 4% SDS, 0.00025% bromophenol blue, 20% glycerol, 50 mM DTT). The eluate was frozen quickly at −80° C. and stored at −20° C.
The kinases in the eluates were detected and quantified by spotting on nitrocellulose membranes and using a first antibody directed against the kinase of interest and a fluorescently labelled secondary antibody (anti-rabbit IRDye™ antibody 800 (Licor, #926-32211). The Odyssey Infrared Imaging system from LI-COR Biosciences (Lincoln, Nebr., USA) was operated according to instructions provided by the manufacturer (Schutz-Geschwendener et al, 2004. Quantitative, two-color Western blot detection with infrared fluorescence. Published May 2004 by LI-COR Biosciences, www.licor.com).
After spotting of the eluates the nitrocellulose membrane (BioTrace NT; PALL, #BTNT30R) was first blocked by incubation with Odyssey blocking buffer (LICOR, 927-40000) for 1 hour at room temperature. Blocked membranes were then incubated for 16 hours at the temperature shown in Table 5 with the first antibody diluted in Odyssey blocking buffer (LICOR #927-40000). Afterwards the membrane was washed twice for 10 minutes with PBS buffer containing 0.2% Tween 20 at room temperature. […]

**Q.** How did the “JAK3/AurA Fold Selectivity” value turn out when `C[C@@H]1COCCN1c1cccc(Cn2ncc3cnc(Nc4cnn(C)c4)nc32)n1` [Example 1, (R)—N-(1-Methyl-1H-pyrazol-4-yl)-1-((6-(3-methylmorpholino)pyridin-2-yl)methyl)-1H-pyrazolo[3,4-d]pyrimidin-6-amine] was run?
**A.** Its value is 3-10 Fold.

**Q.** And the IC50?
**A.** The IC50 was 100 to 1000 nM.

**Q.** With `Cn1cc(Nc2ncc3cnn(Cc4cccc(N5CCOCC5)c4)c3n2)cn1` [Example 2, N-(1-Methyl-1H-pyrazol-4-yl)-1-(3-morpholinobenzyl)-1H-pyrazolo[3,4-d]pyrimidin-6-amine] as the compound, how does the “JAK3/AurA Fold Selectivity” value read?
**A.** Its value is 10-50 Fold.

**Q.** And the IC50?
**A.** The IC50 was 100 to 1000 nM.

**Q.** Which results are given for `Cn1cc(Nc2ncc3cnn(Cc4cccc(N5CCOCC5)n4)c3n2)cn1` [Example 3, N-(1-Methyl-1H-pyrazol-4-yl)-1-((6-morpholinopyridin-2-yl)methyl)-1H-pyrazolo[3,4-d]pyrimidin-6-amine]?
**A.** JAK3/AurA Fold Selectivity: 10-50 Fold; IC50: 100 to 1000 nM

**Q.** How did the “JAK3/AurA Fold Selectivity” value turn out when `CN(C)CCCn1cc(Nc2ncc3cnn(Cc4cccc(N5CCOCC5)c4)c3n2)cn1` [Example 4, N-(1-(3-(Dimethylamino)propyl)-1H-pyrazol-4-yl)-1-(3-morpholinobenzyl)-1H-pyrazolo[3,4-d]pyrimidin-6-amine] was run?
**A.** Its value is over 50 Fold.

**Q.** What about the IC50 of the same compound?
**A.** The IC50 was 1000 to 10000 nM.

**Q.** `OCCn1cc(Nc2ncc3cnn(Cc4cccc(N5CCOCC5)c4)c3n2)cn1` [Example 5, 2-(4-((1-(3-Morpholinobenzyl)-1H-pyrazolo[3,4-d]pyrimidin-6-yl)amino)-1H-pyrazol-1-yl)ethanol] was tested. Which “JAK3/AurA Fold Selectivity” value did it give?
**A.** Its value is 10-50 Fold.

**Q.** What about the IC50 of the same compound?
**A.** The IC50 was 100 to 1000 nM.

**Q.** How did the “JAK3/AurA Fold Selectivity” value turn out when `Cn1cc(Nc2ncc3cnn(Cc4cccc(C(=O)N5CCOCC5)c4)c3n2)cn1` [Example 6, (3-((6-((1-Methyl-1H-pyrazol-4-yl)amino)-1H-pyrazolo[3,4-d]pyrimidin-1-yl)methyl)phenyl)(morpholino)methanone] was run?
**A.** Its value is 10-50 Fold.

**Q.** And the IC50?
**A.** The IC50 was 100 to 1000 nM.

**Q.** What does the source list for `Cn1cc(Nc2ncc3cnn(Cc4cccc(CN5CCOCC5)c4)c3n2)cn1` [Example 7, N-(1-Methyl-1H-pyrazol-4-yl)-1-(3-(morpholinomethyl)benzyl)-1H-pyrazolo[3,4-d]pyrimidin-6-amine]?
**A.** JAK3/AurA Fold Selectivity: 10-50 Fold; IC50: 100 to 1000 nM

**Q.** `Cn1cc(Nc2ncc3cnn(Cc4cccc(N5CCCCC5)c4)c3n2)cn1` [Example 8, N-(1-Methyl-1H-pyrazol-4-yl)-1-(3-(piperidin-1-yl)benzyl)-1H-pyrazolo[3,4-d]pyrimidin-6-amine] was tested. Which “JAK3/AurA Fold Selectivity” value did it give?
**A.** Its value is 10-50 Fold.

**Q.** And the IC50?
**A.** Its IC50 is 1000 to 10000 nM.

**Q.** What does the source list for `Cn1cc(Nc2ncc3cnn(Cc4cccc(C5CCOCC5)c4)c3n2)cn1` [Example 9, N-(1-Methyl-1H-pyrazol-4-yl)-1-(3-(tetrahydro-2H-pyran-4-yl)benzyl)-1H-pyrazolo[3,4-d]pyrimidin-6-amine]?
**A.** JAK3/AurA Fold Selectivity: 10-50 Fold; IC50: 100 to 1000 nM

**Q.** For `CN1CCN(c2cccc(Cn3ncc4cnc(Nc5cnn(C)c5)nc43)c2)CC1` [Example 10, N-(1-Methyl-1H-pyrazol-4-yl)-1-(3-(4-methylpiperazin-1-yl)benzyl)-1H-pyrazolo[3,4-d]pyrimidin-6-amine], which “JAK3/AurA Fold Selectivity” value is on record?
**A.** The value was 3-10 Fold.

**Q.** And the IC50?
**A.** The IC50 was 100 to 1000 nM.

**Q.** With `Cc1c(Cn2ncc3cnc(Nc4cnn(C)c4)nc32)cccc1N1CCOCC1` [Example 11, N-(1-Methyl-1H-pyrazol-4-yl)-1-(2-methyl-3-morpholinobenzyl)-1H-pyrazolo[3,4-d]pyrimidin-6-amine] as the compound, how does the “JAK3/AurA Fold Selectivity” value read?
**A.** Its value is 10-50 Fold.

**Q.** What about the IC50 of the same compound?
**A.** Its IC50 is 100 to 1000 nM.

**Q.** How did the “JAK3/AurA Fold Selectivity” value turn out when `CNC(=O)Cn1cc(Nc2ncc3cnn(Cc4cccc(N5CCOCC5)c4)c3n2)cn1` [Example 12, N-Methyl-2-(4-((1-(3-morpholinobenzyl)-1H-pyrazolo[3,4-d]pyrimidin-6-yl)amino)-1H-pyrazol-1-yl)acetamide] was run?
**A.** Its value is 3-10 Fold.

**Q.** What about the IC50 of the same compound?
**A.** The IC50 was 100 to 1000 nM.

**Q.** How did the “JAK3/AurA Fold Selectivity” value turn out when `CCOC(=O)C1CCCN(c2cccc(Cn3ncc4cnc(Nc5cnn(C)c5)nc43)c2)C1` (stereo not drawn) [Example 13, Ethyl 1-(3-((6-((1-methyl-1H-pyrazol-4-yl)amino)-1H-pyrazolo[3,4-d]pyrimidin-1-yl)methyl)phenyl)piperidine-3-carboxylate] was run?
**A.** Its value is 3-10 Fold.

**Q.** What about the IC50 of the same compound?
**A.** The IC50 was 1000 to 10000 nM.

**Q.** Which “JAK3/AurA Fold Selectivity” value does the source give for `NC(=O)CCn1cc(Nc2ncc3cnn(Cc4cccc(N5CCOCC5)c4)c3n2)cn1` [Example 14, 3-(4-((1-(3-Morpholinobenzyl)-1H-pyrazolo[3,4-d]pyrimidin-6-yl)amino)-1H-pyrazol-1-yl)propanamide] here?
**A.** Its value is 10-50 Fold.

**Q.** And the IC50?
**A.** Its IC50 is 100 to 1000 nM.

**Q.** What does the source list for `Cn1cc(Nc2ncc3cnn(Cc4cc(N5CCOCC5)ccc4F)c3n2)cn1` [Example 15, 1-(2-Fluoro-5-morpholinobenzyl)-N-(1-methyl-1H-pyrazol-4-yl)-1H-pyrazolo[3,4-d]pyrimidin-6-amine]?
**A.** JAK3/AurA Fold Selectivity: 10-50 Fold; IC50: 1000 to 10000 nM

**Q.** For `CN(C)C(=O)CCn1cc(Nc2ncc3cnn(Cc4cccc(N5CCOCC5)c4)c3n2)cn1` [Example 16, N,N-Dimethyl-3-(4-((1-(3-morpholinobenzyl)-1H-pyrazolo[3,4-d]pyrimidin-6-yl)amino)-1H-pyrazol-1-yl)propanamide], which “JAK3/AurA Fold Selectivity” value is on record?
**A.** Its value is 10-50 Fold.

**Q.** What about the IC50 of the same compound?
**A.** Its IC50 is 100 to 1000 nM.

**Q.** Which results are given for `Cn1cc(Nc2ncc3cnn(Cc4c(F)c(F)cc(N5CCOCC5)c4F)c3n2)cn1` [Example 17, N-(1-Methyl-1H-pyrazol-4-yl)-1-(2,3,6-trifluoro-5-morpholinobenzyl)-1H-pyrazolo[3,4-d]pyrimidin-6-amine]?
**A.** JAK3/AurA Fold Selectivity: >50 Fold; IC50: 1000 to 10000 nM

**Q.** Which “JAK3/AurA Fold Selectivity” value does the source give for `OCCCn1cc(Nc2ncc3cnn(Cc4cccc(N5CCOCC5)c4)c3n2)cn1` [Example 18, 3-(4-((1-(3-Morpholinobenzyl)-1H-pyrazolo[3,4-d]pyrimidin-6-yl)amino)-1H-pyrazol-1-yl)propan-1-ol] here?
**A.** The value was 10-50 Fold.

**Q.** And the IC50?
**A.** Its IC50 is 100 to 1000 nM.

**Q.** Which “JAK3/AurA Fold Selectivity” value does the source give for `Cn1cc(Nc2ncc3cnn(Cc4cccc(N5CCC(F)(F)CC5)c4)c3n2)cn1` [Example 19, 1-(3-(4,4-Difluoropiperidin-1-yl)benzyl)-N-(1-methyl-1H-pyrazol-4-yl)-1H-pyrazolo[3,4-d]pyrimidin-6-amine] here?
**A.** The value was 10-50 Fold.

**Q.** What about the IC50 of the same compound?
**A.** The IC50 was 1000 to 10000 nM.

**Q.** With `O=C(CCn1cc(Nc2ncc3cnn(Cc4cccc(N5CCOCC5)c4)c3n2)cn1)N1CCCCC1` [Example 20, 3-(4-((1-(3-Morpholinobenzyl)-1H-pyrazolo[3,4-d]pyrimidin-6-yl)amino)-1H-pyrazol-1-yl)-1-(piperidin-1-yl)propan-1-one] as the compound, how does the “JAK3/AurA Fold Selectivity” value read?
**A.** Its value is 10-50 Fold.

**Q.** What about the IC50 of the same compound?
**A.** Its IC50 is 100 to 1000 nM.

**Q.** Which results are given for `Cn1cc(Nc2ncc3cnn(Cc4cccc(N5CCOCC5)c4F)c3n2)cn1` [Example 21, 1-(2-Fluoro-3-morpholinobenzyl)-N-(1-methyl-1H-pyrazol-4-yl)-1H-pyrazolo[3,4-d]pyrimidin-6-amine]?
**A.** JAK3/AurA Fold Selectivity: >50 Fold; IC50: 100 to 1000 nM

— patent US9040545B2, “Heterocyclyl pyrazolopyrimidine analogues as selective JAK inhibitors” (Cellzome Limited, priority 2010, dated 2015)
